Patent publication US20150313913A1, “POSITIVE ALLOSTERIC MODULATORS OF THE GABA-A RECEPTOR IN THE TREATMENT OF AUTISM” (UNIVERSITY OF WASHINGTON THROUGH ITS CENTER FOR …, priority 2013, published 2015)
Entries after “also recorded” stand apart in the source; their conditions may differ.

Assays:
BTBR mice [1] = assay: Open field test; format: in vivo
Description: (§1) Open field test was performed as previously described (Han et al., 2012). 50×50 cm square open field arena with non-transparent white Plexiglas was used in this study. During the 10 min of trial, total distance moved, circling behavior (a complete 360-degree turn of nose angle with respect to the body center) and time in center (20×20 cm imaginary square) were measured by the video-tracking software (EthoVision XT 8.5, Noldus Technology).

C57BL/6J mice [2] = assay: Open field test; format: in vivo
Description: as §1

BTBR mice [3] = assay: Elevated plus maze test; format: in vivo; details: 0.05 mg/kg
Description: (§2) The test was performed as previously described (Han et al., 2012). The maze used in this study has two closed arms (5.1×30 cm) surrounded by 20-cm high non-transparent walls and two open arms (5.1×30 cm). During the 10 min of trial, times spent in closed, center, and open arms, and total distance traveled during the trial were measured by the video-tracking software (EthoVision XT 8.5, Noldus Technology).

C57BL/6J mice [4] = assay: Elevated plus maze test; format: in vivo; details: low doses of clonazepam
Description: as §2

wild-type mice [5] = assay: Three-chamber social preference test; format: in vivo; details: 0.0625 mg/kg, listed as CLZ
Description: The test was performed as described previously^34 with minor modifications. […] Each partition has a square opening (5×5 cm) in the bottom center. A cylindrical wire cage (10.5 cm diameter; GALAXY PENCIL CUP™ […] D[…]™) was used as an inanimate object or the cage housing a stranger mouse. A cylindrical bottle filled with water was placed on the top of the wire cup to prevent the test mouse from climbing to the top of the cup. The three-chamber unit and wire cups were cleaned with 70% ethanol and wiped with paper towels between each trail. […] The mouse was allowed to freely explore each chamber. […] The wire cage on the other side remained empty (E). […] Thus, the test mouse would now have the choice between a mouse that was already familiar (M1) and a new stranger mouse (M2). […] The movement of the mouse was recorded by a USB webcam (LIFECAM™ HD-6000, MICROSOFT™) and PC-based video capture software (WINAVI™ Video Capture, ZJ MEDIA DIGITAL TECHNOLOGY™). The recorded video file was further analyzed by off-line video tracking software (ETHOVISION™ XT 7.0).
Oral administration is specifically contemplated for the methods described herein, and is well known for both benzodiazepines and non-BDZ GABA-A enhancers as described herein.

Scn1a+/− mice = assay: Contextual fear-conditioning test; format: in vivo; details: single i.p. 0.0625 mg/kg 30 min before training, listed as CLZ
Text: (§3) The contextual fear-conditioning chamber was a square arena (25×25 cm) with clear PLEXIGLAS™ walls and a metal grid floor connected to a circuit board that delivered shocks to the metal grid (COULBOURN INSTRUMENTS™). An analog camera was attached on top of the chamber. The camera and the circuit board were connected to a personal computer, and its software (FREEZE FRAME™ 2.0, ACTIMETRICS™) controlled the circuit and recorded the data. The chamber was cleaned with 70% ethanol and wiped with paper towels before each session. In the habituation session, a test mouse was placed in the chamber and allowed to explore for 2 min^66-69. Immediately after habituation, the test mouse received a single mild foot shock (2 s, 0.5 mA). After staying in the chamber one more min, the mouse was removed from the chamber. For the 30-min short-term memory test, the mouse was returned to the context 30 min after the end of the training session. […] The movement of mice was also recorded by a USB webcam (LIFECAM™ HD-6000, MICROSOFT™) and PC-based video capture software (WINAVI™ Video Capture, ZJ MEDIA DIGITAL TECHNOLOGY™) for 2 min. The recorded video file was further analyzed by off-line video tracking software (ETHOVISION™ XT 7.0, NOLDUS TECHNOLOGY™). The freezing scores were calculated by dividing the test session into 1 min bouts and averaging together all 2 min for each animal. […]

wild-type mice [6] = assay: Contextual fear-conditioning test; format: in vivo; details: 0.0625 mg/kg, listed as CLZ
Text: as §3

[7] = cited from earlier work
[8] = cited from earlier work; remark: listed apart in the source
GABA-A α4 or α6 subtypes = details: cited from earlier work

Row | Structure (SMILES) | visits to center of open field (indicator of abnormally low anxiety) (BTBR mice [1]; 0.05 mg/kg) | locomotor activity under chronic low dose (BTBR mice [1]; 0.05 mg/kg daily for 14 days) | tolerance to sedative effect (locomotor activity Day 14 vs Day 1) (BTBR mice [1]; 1 mg/kg (high dose) for 14 days) | locomotor activity on Day 14 compared to Day 1 (BTBR mice [1]; 1 mg/kg for 14 days) [%] | hyperactivity, total distance moved (BTBR mice [1]; single injection 0.05 mg/kg) | stereotyped circling behavior, number of 360° rotations (BTBR mice [1]; single injection 0.05 mg/kg) | anxiety-like behavior: avoidance of the center of an open field (C57BL/6J mice [2]; low doses of clonazepam) | hyperactivity (total distance moved) and circling behavior (C57BL/6J mice [2]; low-dose clonazepam) | time in open arms (indicator of abnormally low anxiety) (BTBR mice [3]) | sedation (total distance moved during elevated plus maze) (BTBR mice [3]; BTBR and C57BL/6J mice (FIG. 43I)) | anxiety-like behavior: avoidance of the open arms (C57BL/6J mice [4]) | social interaction, 3-chamber social preference test (wild-type mice [5]) | short-term (30 min) and long-term (24 h) fear-associated contextual memory (Scn1a+/− mice) | fear-associated contextual memory (wild-type mice [6]) | half-life ([7]; in vivo) [h] | half-life in vivo ([7]; mouse washout experiment) [h] | Dose in humans for anti-anxiety, anti-convulsive, or sedative effects: equivalent dose to 10 mg diazepam ([8]; Table 1, values marked *) [mg] | dose of equivalent efficacy to 10 mg of diazepam [8] [mg] | affinity for the α4 or α6 subtypes (GABA-A α4 or α6 subtypes)
1 | O=C1CN=C(c2ccccc2Cl)c2cc([N+](=O)[O-])ccc2N1 [Clonazepam] | changed toward the values for C57BL/6J mice | did not cause any increase in locomotor activity; also recorded: did not have any effect | significantly increased locomotor activity; also recorded: caused significant tolerance | 222±42 | significantly reduced | significantly reduced | little effect | unaffected | changed toward the values for C57BL/6J mice | did not cause sedation; also recorded: without sedation | little effect | no effect; also recorded: absent; also recorded: not changed | complete reversal; also recorded: complete rescue | unaffected; also recorded: no significant change | 30 to 40 | 12 | 0.5 | 0.5 | 
2 | Cn1ncnc1COc1nn2c(-c3cc(F)ccc3F)nnc2cc1C(C)(C)C [L-838,417] |  |  |  |  |  |  |  |  |  |  |  |  |  |  |  |  |  |  | little affinity
